Our source for the IC50 and inhibition values is US20160221974A1, “SODIUM CHANNEL MODULATORS FOR THE TREATMENT OF PAIN AND DIABETES” (CHROMOCELL CORPORATION, priority 2013, published 2016).

The target in data set [1] is T1, hNaV1.7 (Homo sapiens, UniProt Q15858).
T1 construct: expressed in transfected cells
The experiment in a line: FDSS Membrane Potential In-Vitro Assay. The format is cell-based. The note with it: stimulation with veratridine and scorpion venom, read-out: NaV1.7 IC50.

Data set [2] concerns the target T2, NaV1.7 (Homo sapiens, UniProt Q15858).
T2 construct: expressed in transfected cells
The experiment in a line: Patchliner Electrophysiological In-Vitro Assay (NaV1.7). The note with it: Patchliner patch clamp, HEK293, holding at V1/2. The format is cell-based. The procedure:
In vitro assays were performed in recombinant cell line that stably express a heterotrimeric protein of interest from an introduced nucleic acid encoding the alpha subunit (hNav1.7, SCN9A), the beta subunit (SCNB1) and the beta subunit (SCNB2). The cell line was engineered using Human Embryonic Kidney 293 cells as host background. Additional cell lines stably expressing recombinant Nav1.7 or Nav1.5 alpha subunit alone or in combination with various beta subunits can also be used in in-vitro assays.
The recording of sodium current from stable HEK293 cell lines expressing NaV1.7 or NaV1.5 was done on a Patchliner® instrument, Nanion Technologies. The Patchliner® is a fully automated bench-top patch clamp platform and can record simultaneously from up to eight single cells with GΩ seals.
For patch-clamp experiments, cells were grown under standard culturing conditions in Dulbecco's Modified Eagles medium supplemented with 10% fetal bovine serum, glutamine and HEPES. Cells were harvested and kept in suspension for up to 4 hours with no significant change in quality or ability to patch. Whole cell patch clamp recordings were conducted according to Nanion's standard procedure for the Patchliner®. Experiments were conducted at room temperature.
Voltage protocols were designed to establish: 1) peak current amplitude (Imax), 2) test potential (Vmax) and 3) half-inactivation potential (V1/2) for each of the eight individual cells. To determine V1/2, a standard steady-state inactivation protocol was executed using a series of fifteen 500 ms depolarizing pre-pulses in 10 mV increments (starting at −130 mV) and immediately followed by a 10 ms test pulse to Vmax. To estimate test compound affinity to the inactivated state of sodium channel (Ki), the holding potential for each cell was set automatically to the V1/2 calculated from a steady-state inactivation data. The current was activated with the following voltage protocol: holding at V1/2 for 2-5 seconds, return to the −120 mV for 5-10 ms to relieve fast inactivation, stepping to test potential (Vmax) for 10-20 ms. This voltage protocol was repeated every 10 seconds to establish the baseline with 2-3 buffer additions followed by the test compound addition. The dose-dependent inhibition was analyzed using Nanion's Data Analysis Package.

For data set [3], the target named is T3, CYP3A4 (Homo sapiens, UniProt P08684).
T3 construct: purchased Invitrogen
T3 sequence (P08684 2-503 limits assumed): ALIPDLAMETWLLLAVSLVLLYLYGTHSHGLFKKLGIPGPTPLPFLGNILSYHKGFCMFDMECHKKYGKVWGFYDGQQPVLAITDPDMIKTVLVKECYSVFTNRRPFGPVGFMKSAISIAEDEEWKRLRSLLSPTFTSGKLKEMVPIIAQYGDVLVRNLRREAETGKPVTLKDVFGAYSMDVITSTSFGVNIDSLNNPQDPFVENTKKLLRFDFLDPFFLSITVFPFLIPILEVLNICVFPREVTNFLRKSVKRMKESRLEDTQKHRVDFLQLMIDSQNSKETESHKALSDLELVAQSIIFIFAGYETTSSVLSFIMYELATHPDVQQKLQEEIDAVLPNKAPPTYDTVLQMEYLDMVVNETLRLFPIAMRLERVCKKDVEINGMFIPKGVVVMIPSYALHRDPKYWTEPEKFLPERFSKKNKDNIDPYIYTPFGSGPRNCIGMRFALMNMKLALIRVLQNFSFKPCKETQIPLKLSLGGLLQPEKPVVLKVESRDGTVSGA
The data set is described as follows: In-Vitro Cytochrome P450 (CYP450) Inhibition Assay (Vivid CYP450). The format is in vitro ADME. The note with it: CYP3A4 enzyme complex (Vivid CYP450, Invitrogen), 6 μM test concentration. How it is done: We evaluated interaction of drug candidates with cytochrome P450 enzymes which are a major determinant of drug clearance via oxidative metabolism using a high throughput compatible, fluorescence based CYP450 screening assay (Vivid® CYP450, Invitrogen) according to manufacturer's directions.
In brief, test compounds at four different concentrations (μM—6.0, 2.0, 0.7, 0.2), a positive control (Ketoconazole) and a solvent control were incubated at room temperature in unique wells of a 96-well microtiter plate with CYP3A4 enzyme complex for 20 minutes. A pre-read fluorescence (Ex−485 nm/Em−530 nm) was measured at the start of the incubation using a Tecan Safire^2 microplate reader-monochromator to determine background fluorescence. At the end of the incubation period, enzyme substrate and co-enzyme were added and the reaction was kinetically monitored for 1 hour by measuring fluorescence every minute. Effect of test compounds on inhibition of CYP3A4 metabolism of provided substrate was determined by calculating the ratio of the effective reaction rate in presence of test compound to that in the absence of inhibitor.

T2 sequence (Q15858 whole entry): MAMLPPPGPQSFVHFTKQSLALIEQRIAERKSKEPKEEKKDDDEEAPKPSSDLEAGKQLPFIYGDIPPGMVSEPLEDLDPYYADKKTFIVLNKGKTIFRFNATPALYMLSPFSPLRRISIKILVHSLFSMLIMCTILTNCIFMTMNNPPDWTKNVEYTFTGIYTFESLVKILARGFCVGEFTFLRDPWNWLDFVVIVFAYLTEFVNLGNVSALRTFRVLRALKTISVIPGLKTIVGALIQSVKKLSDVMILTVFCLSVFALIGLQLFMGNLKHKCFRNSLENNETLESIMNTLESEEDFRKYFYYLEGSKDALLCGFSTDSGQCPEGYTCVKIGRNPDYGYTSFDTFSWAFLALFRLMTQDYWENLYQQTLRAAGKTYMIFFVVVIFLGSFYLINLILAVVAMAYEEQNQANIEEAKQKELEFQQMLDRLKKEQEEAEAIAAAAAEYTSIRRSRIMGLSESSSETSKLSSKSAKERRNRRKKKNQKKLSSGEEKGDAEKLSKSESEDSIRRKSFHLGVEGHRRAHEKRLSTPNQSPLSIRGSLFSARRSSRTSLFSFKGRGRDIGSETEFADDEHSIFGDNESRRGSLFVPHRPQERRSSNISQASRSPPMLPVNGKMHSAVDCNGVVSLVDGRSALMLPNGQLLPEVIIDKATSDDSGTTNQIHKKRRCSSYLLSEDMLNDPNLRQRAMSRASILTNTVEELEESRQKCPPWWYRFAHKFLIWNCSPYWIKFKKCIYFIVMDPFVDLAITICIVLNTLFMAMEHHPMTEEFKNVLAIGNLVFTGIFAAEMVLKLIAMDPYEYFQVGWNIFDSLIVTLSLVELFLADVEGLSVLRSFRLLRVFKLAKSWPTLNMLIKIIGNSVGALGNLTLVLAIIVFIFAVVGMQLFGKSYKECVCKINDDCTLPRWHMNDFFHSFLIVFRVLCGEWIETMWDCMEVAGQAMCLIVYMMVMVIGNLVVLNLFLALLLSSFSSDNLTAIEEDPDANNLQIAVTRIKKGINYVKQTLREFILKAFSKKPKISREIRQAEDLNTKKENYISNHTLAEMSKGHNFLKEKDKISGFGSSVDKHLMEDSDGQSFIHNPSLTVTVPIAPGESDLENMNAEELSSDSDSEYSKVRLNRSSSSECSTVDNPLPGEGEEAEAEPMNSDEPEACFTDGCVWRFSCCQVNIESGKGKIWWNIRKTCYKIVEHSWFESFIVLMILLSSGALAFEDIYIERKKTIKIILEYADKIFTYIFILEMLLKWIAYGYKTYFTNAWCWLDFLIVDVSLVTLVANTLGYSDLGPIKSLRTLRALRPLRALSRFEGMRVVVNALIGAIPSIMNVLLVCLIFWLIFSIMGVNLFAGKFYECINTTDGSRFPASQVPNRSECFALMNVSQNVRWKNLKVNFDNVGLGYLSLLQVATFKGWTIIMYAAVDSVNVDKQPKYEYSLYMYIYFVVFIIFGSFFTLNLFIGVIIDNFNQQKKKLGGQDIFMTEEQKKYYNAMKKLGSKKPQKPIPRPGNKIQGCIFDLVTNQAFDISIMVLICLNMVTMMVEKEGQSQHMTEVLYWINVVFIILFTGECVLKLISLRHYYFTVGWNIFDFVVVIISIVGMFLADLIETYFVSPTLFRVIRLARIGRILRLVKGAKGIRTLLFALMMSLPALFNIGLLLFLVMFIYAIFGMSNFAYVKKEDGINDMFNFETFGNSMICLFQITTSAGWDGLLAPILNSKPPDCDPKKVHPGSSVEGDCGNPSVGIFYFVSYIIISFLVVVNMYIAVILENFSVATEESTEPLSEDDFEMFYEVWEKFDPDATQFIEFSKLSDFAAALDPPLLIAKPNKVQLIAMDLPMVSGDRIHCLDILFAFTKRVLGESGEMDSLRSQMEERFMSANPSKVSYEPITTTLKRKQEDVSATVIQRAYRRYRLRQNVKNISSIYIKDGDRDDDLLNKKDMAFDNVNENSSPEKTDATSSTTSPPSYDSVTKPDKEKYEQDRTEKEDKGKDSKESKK
T2 sequence (Q07699 19-218 partner): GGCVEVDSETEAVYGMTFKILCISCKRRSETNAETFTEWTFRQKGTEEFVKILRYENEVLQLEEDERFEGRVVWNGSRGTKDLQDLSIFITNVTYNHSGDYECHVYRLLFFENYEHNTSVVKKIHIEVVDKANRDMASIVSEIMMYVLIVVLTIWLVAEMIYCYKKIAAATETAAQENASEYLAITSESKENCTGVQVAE
T2 sequence (O60939 30-215 partner): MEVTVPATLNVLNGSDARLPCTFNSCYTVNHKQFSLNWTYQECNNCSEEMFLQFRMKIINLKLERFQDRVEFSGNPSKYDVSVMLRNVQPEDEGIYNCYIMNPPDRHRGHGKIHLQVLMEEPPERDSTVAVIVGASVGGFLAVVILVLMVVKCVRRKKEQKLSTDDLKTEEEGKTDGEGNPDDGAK
T1 sequence (Q15858 whole entry): as the sequence (Q15858 whole entry) above
T1 sequence (Q07699 19-218 partner): as the sequence (Q07699 19-218 partner) above
T1 sequence (O60939 30-215 partner): as the sequence (O60939 30-215 partner) above

In the case of `CC(NC(=O)c1cc(-c2cc(Cl)ccc2Oc2cc(F)c(S(=O)(=O)Nc3ncns3)cc2Cl)ccn1)C(=O)O` (racemic) [Compound 5, 2-(4-(2-(4-(N-(1,2,4-thiadiazol-5-yl)sulfamoyl)-2-chloro-5-fluorophenoxy)-5-chlorophenyl)picolinamido)propanoic acid], the concentration for half-maximal inhibition (IC50) in data set [1] is 130 to 1000 nM; in data set [2] it was less than 100 nM. The molecule also displayed an inhibition at 1 hour, 6 µM in data set [3] of 25 to 50%.

`O=C(O)CCCCNC(=O)c1cc(-c2cc(Cl)ccc2Oc2cc(F)c(S(=O)(=O)Nc3ncns3)cc2Cl)ccn1` [Compound 3, 5-(4-(2-(4-(N-(1,2,4-thiadiazol-5-yl)sulfamoyl)-2-chloro-5-fluorophenoxy)-5-chlorophenyl)picolinamido)pentanoic acid]: in data set [1], the IC50 was less than 130 nM. Besides, the inhibition at 1 hour, 6 µM in data set [3] was 50 to 100%.

As for `O=C(O)CCCNC(=O)c1cc(-c2cc(Cl)ccc2Oc2cc(F)c(S(=O)(=O)Nc3ncns3)cc2Cl)ccn1` [Compound 4, 4-(4-(2-(4-(N-(1,2,4-thiadiazol-5-yl)sulfamoyl)-2-chloro-5-fluorophenoxy)-5-chlorophenyl)picolinamido)butanoic acid], in data set [1], the 50% inhibitory concentration (IC50) lay within 130 to 1000 nM. Also, in data set [3], the inhibition at 1 hour, 6 µM lay in the range of 50 to 100%.

Turning to `C[C@@H](NC(=O)c1cc(-c2cc(Cl)ccc2Oc2cc(F)c(S(=O)(=O)Nc3ncns3)cc2Cl)ccn1)C(=O)O` [Compound 6, (R)-2-(4-(2-(4-(N-(1,2,4-thiadiazol-5-yl)sulfamoyl)-2-chloro-5-fluorophenoxy)-5-chlorophenyl)picolinamido)propanoic acid], the results for the IC50 in data set [1] and in data set [2] were 130 to 1000 nM and less than 100 nM, respectively. The same molecule gave an inhibition at 1 hour, 6 µM in data set [3] of 25 to 50%.

Regarding `C[C@H](NC(=O)c1cc(-c2cc(Cl)ccc2Oc2cc(F)c(S(=O)(=O)Nc3ncns3)cc2Cl)ccn1)C(=O)O` [Compound 8, (S)-2-(4-(2-(4-(N-(1,2,4-thiadiazol-5-yl)sulfamoyl)-2-chloro-5-fluorophenoxy)-5-chlorophenyl)picolinamido)propanoic acid], the IC50 in data set [1] is 130 to 1000 nM; in data set [2], less than 100 nM. In data set [3], this molecule yielded an inhibition at 1 hour, 6 µM of 25 to 50%.

Regarding `N#Cc1cc(S(=O)(=O)Nc2ncns2)ccc1Oc1ccc(Cl)cc1-c1ccnc(C(=O)NCCC(=O)O)c1` [Compound 9, 3-(4-(2-(4-(N-(1,2,4-thiadiazol-5-yl)sulfamoyl)-2-cyanophenoxy)-5-chlorophenyl)picolinamido)propanoic acid], the 50% inhibitory concentration (IC50) in data set [1] was 130 to 1000 nM. The same molecule gave an inhibition at 1 hour, 6 µM in data set [3] of 0 to 25%.

In the case of `O=C(O)CCNC(=O)c1cc(-c2cc(Cl)ccc2Oc2cc(F)c(S(=O)(=O)Nc3ncns3)cc2F)ccn1` [Compound 10, 3-(4-(2-(4-(N-(1,2,4-thiadiazol-5-yl)sulfamoyl)-2,5-difluorophenoxy)-5-chlorophenyl)picolinamido)propanoic acid], the IC50 in data set [1] lay in the range of 130 to 1000 nM. The molecule further showed an inhibition at 1 hour, 6 µM in data set [3] of 25 to 50%.

`O=C(O)CNCCCc1cc(Cl)ccc1Oc1cc(F)c(S(=O)(=O)Nc2cscn2)cc1Cl` [Compound 11, 2-((3-(5-chloro-2-(2-chloro-5-fluoro-4-(N-(thiazol-4-yl)sulfamoyl)phenoxy)phenyl)propyl)amino)acetic acid]: the IC50 in data set [2] is less than 100 nM. The same molecule came in with an inhibition at 1 hour, 6 µM in data set [3] of 0 to 25%.

As for `O=C(O)CNCCCc1cc(Cl)ccc1Oc1cc(F)c(S(=O)(=O)Nc2nccs2)cc1Cl` [Compound 13, 2-((3-(5-chloro-2-(2-chloro-5-fluoro-4-(N-(thiazol-2-yl)sulfamoyl)phenoxy)phenyl)propyl)amino)acetic acid], the IC50 is less than 130 nM in data set [1] and less than 100 nM in data set [2]. In data set [3], this molecule displayed an inhibition at 1 hour, 6 µM of 0 to 25%.

Take `O=C(O)C1CCN(CCCc2cc(Cl)ccc2Oc2cc(F)c(S(=O)(=O)Nc3cscn3)cc2Cl)CC1` [Compound 14, 1-(3-(5-chloro-2-(2-chloro-5-fluoro-4-(N-(thiazol-4-yl)sulfamoyl)phenoxy)phenyl)propyl)piperidine-4-carboxylic acid]: the IC50 fell in the range of 1000 to 20000 nM in data set [1] and 100 to 1000 nM in data set [2]. Also, in data set [3], the inhibition at 1 hour, 6 µM fell in the range of 0 to 25%.

With `NC1(C(=O)O)CCN(CCCc2cc(Cl)ccc2Oc2cc(F)c(S(=O)(=O)Nc3cscn3)cc2Cl)CC1` [Compound 16, 4-amino-1-(3-(5-chloro-2-(2-chloro-5-fluoro-4-(N-(thiazol-4-yl)sulfamoyl)phenoxy)phenyl)propyl)piperidine-4-carboxylic acid], the IC50 is less than 130 nM in data set [1] and less than 100 nM in data set [2]. Further, the inhibition at 1 hour, 6 µM in data set [3] was 25 to 50%.

On to `N#Cc1cc(S(=O)(=O)Nc2cscn2)ccc1Oc1ccc(Cl)cc1CCCNCCC(=O)O` [Compound 23, 3-((3-(5-chloro-2-(2-cyano-4-(N-(thiazol-4-yl)sulfamoyl)phenoxy)phenyl)propyl)amino)propanoic acid], for which the IC50 in data set [1] is 1000 to 20000 nM; in data set [2], 100 to 1000 nM.

With `NC(=O)CCNCCCc1cc(Cl)ccc1Oc1cc(F)c(S(=O)(=O)Nc2cscn2)cc1Cl` [Compound 26, 3-((3-(5-chloro-2-(2-chloro-5-fluoro-4-(N-(thiazol-4-yl)sulfamoyl)phenoxy)phenyl)propyl)amino)propanamide], the IC50 in data set [1] is less than 130 nM; in data set [2], less than 100 nM.

Consider `O=C(O)CC1CCN(CCCc2cc(Cl)ccc2Oc2cc(F)c(S(=O)(=O)Nc3ncns3)cc2Cl)CC1` [Compound 28, 2-(1-(3-(2-(4-(N-(1,2,4-thiadiazol-5-yl)sulfamoyl)-2-chloro-5-fluorophenoxy)-5-chlorophenyl)propyl)piperidin-4-yl)acetic acid], for which the results for the IC50 in data set [1] and in data set [2] were 130 to 1000 nM and less than 100 nM, respectively.

As to `CCOC(=O)N(CCCc1cc(Cl)ccc1Oc1cc(F)c(S(=O)(=O)Nc2nccs2)cc1Cl)CC(=O)O` [Compound 34, 2-((3-(5-chloro-2-(2-chloro-5-fluoro-4-(N-(thiazol-2-yl)sulfamoyl)phenoxy)phenyl)propyl)(ethoxycarbonyl)amino)acetic acid], the IC50 in data set [1] was 500 to 1000 nM; in data set [2] it was 100 to 500 nM.

In the case of `CN(CCCc1cc(Cl)ccc1Oc1cc(F)c(S(=O)(=O)Nc2cscn2)cc1Cl)CC(=O)O` [Compound 47, 2-((3-(5-chloro-2-(2-chloro-5-fluoro-4-(N-(thiazol-4-yl)sulfamoyl)phenoxy)phenyl)propyl)(methyl)amino)acetic acid], the IC50 fell in the range of 1000 to 20000 nM in data set [1] and 1000 to 10000 nM in data set [2].

In the case of `COC(=O)CN(C)CCCc1cc(Cl)ccc1Oc1cc(F)c(S(=O)(=O)Nc2cscn2)cc1Cl` [Compound 52, methyl 2-((3-(5-chloro-2-(2-chloro-5-fluoro-4-(N-(thiazol-4-yl)sulfamoyl)phenoxy)phenyl)propyl)(methyl)amino)acetate], the figures for the IC50 in data set [1] and in data set [2] were 1000 to 20000 nM and 100 to 500 nM, respectively.

Take `CCCN(CCCc1cc(Cl)ccc1Oc1cc(F)c(S(=O)(=O)Nc2nccs2)cc1Cl)CC(=O)O` [Compound 65, 2-((3-(5-chloro-2-(2-chloro-5-fluoro-4-(N-(thiazol-2-yl)sulfamoyl)phenoxy)phenyl)propyl)(propyl)amino)acetic acid]: in data set [2], the concentration for half-maximal inhibition (IC50) is less than 100 nM.

Consider `C#CCN(CCCc1cc(Cl)ccc1Oc1cc(F)c(S(=O)(=O)Nc2nccs2)cc1Cl)CCC(=O)O` [Compound 66, 3-((3-(5-chloro-2-(2-chloro-5-fluoro-4-(N-(thiazol-2-yl)sulfamoyl)phenoxy)phenyl)propyl)(prop-2-yn-1-yl)amino)propanoic acid], for which the IC50 in data set [2] was less than 100 nM.

For `C#CCN(CCCc1cc(Cl)ccc1Oc1cc(F)c(S(=O)(=O)Nc2nccs2)cc1F)CC(=O)O` [Compound 67, 2-((3-(5-chloro-2-(2,5-difluoro-4-(N-(thiazol-2-yl)sulfamoyl)phenoxy)phenyl)propyl)(prop-2-yn-1-yl)amino)acetic acid], in data set [2], the IC50 is less than 100 nM.

`NC(=O)CNCCCc1cc(Cl)ccc1Oc1cc(F)c(S(=O)(=O)Nc2cscn2)cc1F` [Compound 69, 2-((3-(5-chloro-2-(2,5-difluoro-4-(N-(thiazol-4-yl)sulfamoyl)phenoxy)phenyl)propyl)amino)acetamide]: in data set [2], the IC50 is less than 100 nM.
